The numbers were not newly measured in patent US20090148532A1, “Preparation of controlled release skeletal muscle relaxant dosage forms” (priority 2007, published 2009), which cites them from elsewhere.

The conditions of the data set: after oral administration.

For the compound `CN(C)CCC=C1c2ccccc2C=Cc2ccccc21` [Cyclobenzaprine], the Elimination half-life result was “one to three”.
